From patent US4052409A, “Disubstituted triphenylmethylimidazoles” (Bayer Aktiengesellschaft, priority 1972, dated 1977) come the findings set out here.

Experiment [1] relates to Penicillium commune. The experiment is described as follows: Antimycotic activity in vitro, series dilution test. The note with it: 28° C, 24 to 96 hours, serum not stated, read-out: Minimum Inhibitory Concentration. Format: cell-based. On the procedure:
(§1) Determination of the antimycotic spectrum of activity in vitro by the series dilution test.
(§2) The nutrient media used were Sabouraud's milieu d'epreuve for dermatophytes and molds and meat broth-glucose bouillon for blastomycetes and biphase fungi.
(§3) The incubation temperature was 28° C and the incubation time was 24 to 96 hours.

Experiment [2] concerns Microsporon canis. Described as above. It is filed as cell-based. The note with it: 28° C, 24 to 96 hours; serum not stated; read-out: Minimum Inhibitory Concentration. On the procedure:
as §1, §2, §3

Experiment [3] has as its system Aspergillus niger. Described as above. The note with it: 28° C, 24 to 96 hours, read-out: Minimum Inhibitory Concentration. It is filed as cell-based. On the procedure: as §1, §2, §3
Experiment [4] relates to Candida albicans. The experiment is described as above. Format: cell-based. The note with it: 28° C, 24 to 96 hours, read-out: Minimum Inhibitory Concentration. On the procedure: as §1, §2, §3
Experiment [5] has as its system Trichophyton mentagrophytes. The description is as above. The note with it: 28° C, 24 to 96 hours, read-out: Minimum Inhibitory Concentration. Format: cell-based. Here is the method: as §1, §2, §3
Experiment [6] deals with Trichophyton mentagrophytes. Put plainly: Topical application in experimental trichophytosis of guinea pigs. The settings on record: 1% strength solution, topically for 11 to 14 days. Format: in vivo. Details: key: ++: slight action = reduction of symptons of the infection; +++: action = rapid healing of the infection; ++++: good action = complete suppression of symptoms of the infection. The source says: a. Topical application in experimental trichophytosis of guinea pigs (excitant: Trichophyton mentagrophytes)
A 1% strength solution of the active compound in a dimethylsulphoxide/glycerine/water mixture (1:3:6) or in polyethylene glycol 400 was applied topically for 11 to 14 days after the trichophytosis had been caused experimentally.

Molecules are shown by their SMILES. Converted amounts (≈) assume the structure as drawn. Like-named read-outs stand apart in the source and are kept apart here.

For `Cc1cc(Cl)ccc1C(c1ccccc1)(c1ccccc1)n1ccnc1` [Example 4 (from Table 1), 1-(2-Methyl-4-chlorophenyl-diphenyl)-methyl-imidazole], the MIC was found to be 4 µg/mL (≈ 11.1 µM) in experiment [1], 4 µg/mL (≈ 11.1 µM) in experiment [2], 1 µg/mL (≈ 2.79 µM) in experiment [3] (n.s. = no added serum) and 10 µg/mL (≈ 27.9 µM) in experiment [3] (w.s. = with 30% serum added).

Regarding `Cc1ccccc1C(c1ccccc1)(c1ccccc1C)n1ccnc1` [Example 8 (from Table 1), 1-(2-Methylphenyl-2'-methylphenyl-phenyl)-methyl-imidazole], the MIC was 10 µg/mL (≈ 29.5 µM) in experiment [1]; 4 µg/mL (≈ 11.8 µM) in experiment [2]; 10 µg/mL (≈ 29.5 µM) in experiment [4] (w.s. = with 30% serum added); < 1 µg/mL in experiment [3] (n.s. = no added serum); 10 µg/mL (≈ 29.5 µM) in experiment [3] (w.s. = with 30% serum added).

In the case of `Cc1ccc(C)c(C(c2ccccc2)(c2ccccc2)n2ccnc2)c1` [Example 3 (from Table 1), 1-(2,5-Dimethylphenyl-diphenyl)-methyl-imidazole], the MIC in experiment [1] is 4 µg/mL (≈ 11.8 µM); in experiment [2], 4 µg/mL (≈ 11.8 µM); in experiment [3] (n.s. = no added serum), 1 µg/mL (≈ 2.95 µM); in experiment [3] (w.s. = with 30% serum added) it was 40 µg/mL (≈ 118 µM).

Take `Clc1cccc(C(c2ccccc2)(c2ccccc2)n2ccnc2)c1Cl` [Example 6]: the MIC was < 1 µg/mL in experiment [5] (n.s. = no added serum); 4 µg/mL (≈ 10.5 µM) in experiment [5] (w.s. = with 30% serum added); 4 µg/mL (≈ 10.5 µM) in experiment [1]; < 1 µg/mL in experiment [2]; 1 µg/mL (≈ 2.64 µM) in experiment [4] (n.s. = no added serum); < 1 µg/mL in experiment [3] (n.s. = no added serum). Moreover, the MIC in experiment [3] (w.s. = with 30% serum added) is 10 µg/mL (≈ 26.4 µM). For the same compound, the “Action in trichophytosis of guinea pigs” value in experiment [6] is recorded as “++”.

`Clc1ccccc1C(c1ccccc1)(c1ccccc1Cl)n1ccnc1` [Example 9 (from Table 1), 1-(2-Chlorophenyl-2'-chlorophenyl-phenyl) -methyl-imidazole]: the values for the MIC in experiment [1], in experiment [2] and in experiment [3] (n.s. = no added serum) were 1 µg/mL (≈ 2.64 µM), < 1 µg/mL and < 1 µg/mL, respectively.

On to `Clc1cccc(Cl)c1C(c1ccccc1)(c1ccccc1)n1ccnc1` [Example 7 (from Table 1), 1-(2,6-Dichlorophenyl-diphenyl)-methyl-imidazole], for which the MIC in experiment [1] is 4 µg/mL (≈ 10.5 µM); in experiment [2], < 1 µg/mL; in experiment [3] (n.s. = no added serum) it was < 1 µg/mL; in experiment [3] (w.s. = with 30% serum added), 4 µg/mL (≈ 10.5 µM).

Turning to `Cc1ccc(C(c2ccccc2)(c2ccccc2)n2ccnc2)c(C)c1` [Example 2], the MIC in experiment [5] (n.s. = no added serum) was < 1 µg/mL; in experiment [5] (w.s. = with 30% serum added), 10 µg/mL (≈ 29.5 µM); in experiment [1], 100 µg/mL (≈ 295 µM); in experiment [2], 4 µg/mL (≈ 11.8 µM); in experiment [4] (n.s. = no added serum) it was 1 µg/mL (≈ 2.95 µM); in experiment [3] (n.s. = no added serum), 1 µg/mL (≈ 2.95 µM). Also, the MIC in experiment [3] (w.s. = with 30% serum added) worked out at 4 µg/mL (≈ 11.8 µM). The “Action in trichophytosis of guinea pigs” value in experiment [6] is given as “++++”.

For the compound `Cc1cccc(C(c2ccccc2)(c2ccccc2)n2ccnc2)c1C` [Example 1 (from Table 1), 1-(2,3-dimethylphenyl-diphenyl)-methyl-imidazole], the figures for the MIC in experiment [1] and in experiment [2] were < 1 µg/mL and 4 µg/mL (≈ 11.8 µM), respectively.
